The source of these data is patent US5663180A, “Substituted cyclopentenes for the treatment of inflammation” (G.D. Searle & Co., priority 1994, dated 1997).

pIC50: −log10 of the molar value. Like-named read-outs stand apart in the source and are kept apart here.

One assay has as its system COX II enzyme. The settings on record: literature report; cited from earlier work.
In the next assay the test system is RAT PAW EDEMA. Briefly: Rat Carrageenan Foot Pad Edema Test. The note with it: po, 3 h, read-out: RAT PAW EDEMA % Inhibition. For orientation: In the carrageenan paw model, swelling and tenderness develop within hours.
Assay [1] concerns hyperalgesic foot withdrawal (rat carrageenan). Briefly: Rat Carrageenan-induced Analgesia Test. The format is in vivo, Male Sprague-Dawley rats.
In the next assay the target is T1, HUMAN COX I (Homo sapiens, UniProt P23219).
T1 construct: A 2.0 kb fragment containing the coding region of either human or murine COX-I or human or murine COX-II; made in house; host or cells: SF9 insect cells (recombinant baculovirus, pVL1393); CHAPS-solubilized
T1 sequence (P23219 24-599): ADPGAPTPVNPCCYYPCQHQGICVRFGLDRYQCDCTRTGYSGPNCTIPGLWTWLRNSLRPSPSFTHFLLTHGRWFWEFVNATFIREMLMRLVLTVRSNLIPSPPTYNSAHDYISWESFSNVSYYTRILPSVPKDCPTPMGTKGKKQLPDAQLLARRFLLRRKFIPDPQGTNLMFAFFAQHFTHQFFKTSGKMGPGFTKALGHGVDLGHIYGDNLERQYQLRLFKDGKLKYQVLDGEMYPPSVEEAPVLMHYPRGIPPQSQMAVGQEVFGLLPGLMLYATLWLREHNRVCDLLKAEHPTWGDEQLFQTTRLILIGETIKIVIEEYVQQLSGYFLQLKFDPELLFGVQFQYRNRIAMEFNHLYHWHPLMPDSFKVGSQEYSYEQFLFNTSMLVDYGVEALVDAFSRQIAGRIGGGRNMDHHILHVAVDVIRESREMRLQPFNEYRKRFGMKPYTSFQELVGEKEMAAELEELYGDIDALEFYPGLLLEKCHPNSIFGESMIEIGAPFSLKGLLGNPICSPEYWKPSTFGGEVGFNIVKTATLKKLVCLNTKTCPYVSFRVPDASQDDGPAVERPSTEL
Briefly: COX I activity in vitro (PGE2 formed, ELISA, recombinant enzyme). Type of assay: biochemical. The note with it: read-out: HUMAN COX I ID50. Background: In an ELISA, binding on a coated surface is turned into a signal by an enzyme label.

The next assay concerns the target T2, HUMAN COX II (Homo sapiens, UniProt P35354).
T2 construct: A 2.0 kb fragment containing the coding region of either human or murine COX-I or human or murine COX-II; made in house; host or cells: SF9 insect cells (recombinant baculovirus, pVL1393); CHAPS-solubilized
T2 sequence (P35354 18-604): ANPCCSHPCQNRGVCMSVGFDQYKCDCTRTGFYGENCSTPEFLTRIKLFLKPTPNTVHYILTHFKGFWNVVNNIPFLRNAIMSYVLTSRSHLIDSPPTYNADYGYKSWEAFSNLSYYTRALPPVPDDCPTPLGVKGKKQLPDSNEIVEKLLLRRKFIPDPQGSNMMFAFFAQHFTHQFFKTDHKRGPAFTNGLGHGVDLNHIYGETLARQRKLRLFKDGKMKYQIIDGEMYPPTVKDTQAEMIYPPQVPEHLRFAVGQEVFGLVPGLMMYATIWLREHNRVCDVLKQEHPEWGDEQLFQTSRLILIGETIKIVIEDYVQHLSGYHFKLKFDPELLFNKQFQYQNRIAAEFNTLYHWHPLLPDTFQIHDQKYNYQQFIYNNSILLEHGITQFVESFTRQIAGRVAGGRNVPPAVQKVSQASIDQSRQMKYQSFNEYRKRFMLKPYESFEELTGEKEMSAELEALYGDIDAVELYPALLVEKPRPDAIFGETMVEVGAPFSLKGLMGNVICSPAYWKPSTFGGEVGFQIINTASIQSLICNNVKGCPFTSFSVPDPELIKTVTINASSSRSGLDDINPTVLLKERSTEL
Briefly: COX II activity in vitro (PGE2 formed, ELISA, recombinant enzyme). Type of assay: biochemical. The note with it: arachidonic acid 10 μM, 10-20 min pre-incubation, read-out: HUMAN COX II ID50.

The mark [2] stands for this setting: po, 3 h, read-out: ANALGESIA % Inhibition.
Setting [3] is: recombinant human COX I, arachidonic acid 10 μM, 10-20 min pre-incubation.

On to `COc1ccc2cc(CC(=O)O)ccc2c1` [6-methoxy-2-napthylacetic acid], for which the “inhibition of the COX II enzyme” value with COX II enzyme was “selectively inhibit the COX II enzyme”. Turning to `CS(=O)(=O)c1ccc(C2=C(c3ccc(F)cc3)CCC2)cc1` [Example 1, 1-[2-(4-Fluorophenyl)cyclopenten-1-yl]-4-(methylsulfonyl)benzene], the inhibition in vivo at 10 mg/kg in the assay with RAT PAW EDEMA worked out at 32%. For the same compound, the inhibition in vivo at 20 mg/kg in assay [1] (setting [2]) was 66%.

Consider `Cc1cc(F)ccc1C1=C(c2ccc(S(C)(=O)=O)cc2)CCC1` [Example 2, 1-[2-(4-Fluoro-2-methylphenyl)cyclopenten-1-yl]-4-(methylsulfonyl)benzene], for which, in the assay on RAT PAW EDEMA, the inhibition in vivo at 10 mg/kg came to 39%.

As for `CS(=O)(=O)c1ccc(C2=C(c3ccc(Cl)cc3)CCC2)cc1` [Example 3, 1-[2-(4-Chlorophenyl)cyclopenten-1-yl]-4-(methylsulfonyl)benzene], the inhibition in vivo at 10 mg/kg in the assay on RAT PAW EDEMA was 33%. Besides, the inhibition in vivo at 20 mg/kg in assay [1] (setting [2]) came out at 41%.

For the compound `CS(=O)(=O)c1ccc(C2=C(c3ccc(Cl)cc3Cl)CCC2)cc1` [Example 4, 1-[2-(2,4-Dichlorophenyl)cyclopenten-1-yl]-4-(methylsulfonyl)benzene], in the assay on RAT PAW EDEMA, the inhibition in vivo at 10 mg/kg came to 25%. Consider `Cc1ccc(C2=C(c3ccc(S(C)(=O)=O)cc3)CCC2)cc1` [Example 5, 1-[2-(4-Methylphenyl)cyclopenten-1-yl]-4-(methylsulfonyl)benzene], for which the inhibition in vivo at 10 mg/kg in the assay on RAT PAW EDEMA worked out at 16%. As for `CS(=O)(=O)c1ccc(C2=C(c3ccc(C(F)(F)F)cc3)CCC2)cc1` [Example 6, 1-[2-(4-Trifluoromethylphenyl)cyclopenten-1-yl]-4-(methylsulfonyl)benzene], the inhibition in vivo at 10 mg/kg in the assay with RAT PAW EDEMA came to 39%. Moreover, the inhibition in vivo at 20 mg/kg in assay [1] (setting [2]) amounted to 29%. On to `CSc1ccc(C2=C(c3ccc(S(C)(=O)=O)cc3)CCC2)cc1` [Example 11, 1-[2-(4-Methylthiophenyl)cyclopenten-1-yl]-4-(methylsulfonyl)benzene], for which the inhibition in vivo at 20 mg/kg in assay [1] (setting [2]) came out at 39%.

As to `CC1(C)CC(c2ccc(F)cc2)=C(c2ccc(S(C)(=O)=O)cc2)C1` [Example 12, 1-[2-(4-Fluorophenyl)-4,4-dimethylcyclopenten-1-yl]-4-(methylsulfonyl)benzene], in the assay with RAT PAW EDEMA, the inhibition in vivo at 20 mg/kg is 45%. Also, at HUMAN COX I (recombinant cox-i), the pIC50 is 4.74. Consider `CC1(C)CC(c2ccc(F)cc2)=C(c2ccc(S(N)(=O)=O)cc2)C1` [Example 13, 4-[2-(4-Fluorophenyl)-4,4-dimethylcyclopenten-1-yl]benzenesulfonamide], for which the inhibition in vivo at 30 mg/kg amounted to 34% in the assay with RAT PAW EDEMA and 14% in assay [1] (read-out: ANALGESIA % Inhibition, Assay performed at 30 mg/kg body weight (footnote 2), oral, 3 hours after carrageenan, read-out: […] % Inhibition). The pIC50 at HUMAN COX I (setting [3]) was 6.30. For the compound `CC1(C)CC(c2ccc(Cl)cc2)=C(c2ccc(S(C)(=O)=O)cc2)C1` [Example 14, 1-[2-(4-Chlorophenyl)-4,4-dimethylcyclopenten-1-yl]-4-(methylsulfonyl)benzene], the inhibition in vivo at 30 mg/kg with RAT PAW EDEMA came to 31%. The pIC50 at HUMAN COX I (recombinant cox-i) is 5.80.

For `CC1(C)CC(c2ccc(Cl)cc2)=C(c2ccc(S(N)(=O)=O)cc2)C1` [Example 15, 4-[2-(4-Chlorophenyl)-4,4-dimethylcyclopenten-1-yl]benzenesulfonamide], the inhibition in vivo at 30 mg/kg with RAT PAW EDEMA turned out to be 41%. Besides, at HUMAN COX II, the pIC50 was greater than 7.00. For the compound `CCC1(CC)CC(c2ccc(F)cc2)=C(c2ccc(S(N)(=O)=O)cc2)C1` [Example 19, 4-[2-(4-Fluorophenyl)-4,4-diethylcyclopenten-1-yl]benzenesulfonamide], the pIC50 is 5.00 at HUMAN COX I (setting [3]) and 5.41 on HUMAN COX II. Regarding `NS(=O)(=O)c1ccc(C2=C(c3ccc(F)cc3)CCC2)cc1` [Example 20, 4-[2-(4-Fluorophenyl)cyclopenten-1-yl]benzenesulfonamide], the inhibition in vivo at 10 mg/kg with RAT PAW EDEMA worked out at 26%. For the same compound, in assay [1] (setting [2]), the inhibition in vivo at 30 mg/kg amounted to 44%. Moreover, the pIC50 at HUMAN COX I (recombinant cox-i) was 5.38. `NS(=O)(=O)c1ccc(C2=C(c3ccc(Cl)cc3)CCC2)cc1` [Example 21, 4-[2-(4-Chlorophenyl)cyclopenten-1-yl]benzenesulfonamide]: on HUMAN COX I (recombinant cox-i), the pIC50 was 5.89. As for `COc1ccc(C2=C(c3ccc(S(C)(=O)=O)cc3)CCC2)cc1` [Example 23, 1-[2-(4-Methoxyphenyl)cyclopenten-1-yl]-4-(methylsulfonyl)benzene], the inhibition in vivo at 10 mg/kg with RAT PAW EDEMA worked out at 22%. The inhibition in vivo at 30 mg/kg in assay [1] (setting [2]) came out at 15%. For the same compound, the pIC50 at HUMAN COX I (recombinant cox-i) was 5.00. As to `CS(=O)(=O)c1ccc(C2=C(c3cccc(F)c3F)CCC2)cc1` [Example 25, 1-[2-(2,3-Difluorophenyl)cyclopenten-1-yl]-4-(methylsulfonyl)benzene], the pIC50 on HUMAN COX I (setting [3]) was less than 4.00; at HUMAN COX II, greater than 7.00. Consider `NS(=O)(=O)c1ccc(C2=C(c3cccc(F)c3F)CCC2)cc1` [Example 26, 4-[2-(2,3-Difluorophenyl)cyclopenten-1-yl]benzenesulfonamide], for which the pIC50 at HUMAN COX I (setting [3]) was 5.44.

With `NS(=O)(=O)c1ccc(C2=C(c3ccc(Cl)c(Cl)c3)CCC2)cc1` [Example 28, 4-[2-(3,4-Dichlorophenyl)cyclopenten-1-yl]benzenesulfonamide], in the assay with RAT PAW EDEMA, the inhibition in vivo at 10 mg/kg was found to be 10%. In assay [1] (setting [2]), the inhibition in vivo at 30 mg/kg was found to be 26%.

Take `COc1ccc(C2=C(c3ccc(S(N)(=O)=O)cc3)CCC2)cc1F` [Example 30, 4-[2-(3-Fluoro-4-methoxyphenyl)cyclopenten-1-yl]benzenesulfonamide]: in the assay on RAT PAW EDEMA, the inhibition in vivo at 30 mg/kg stood at 47%. The pIC50 on HUMAN COX I (recombinant cox-i) was 5.09. For the compound `COc1ccc(C2=C(c3ccc(S(N)(=O)=O)cc3)CCC2)cc1Cl` [Example 32, 4-[2-(3-Chloro-4-methoxyphenyl)cyclopenten-1-yl]benzenesulfonamide], the inhibition in vivo at 10 mg/kg with RAT PAW EDEMA was found to be 13%. The inhibition in vivo at 30 mg/kg in assay [1] (setting [2]) is 17%. With `NS(=O)(=O)c1ccc(C2=C(c3ccc(F)c(Cl)c3)CCC2)cc1` [Example 34, 4-[2-(3-Chloro-4-fluorophenyl)cyclopenten-1-yl]benzenesulfonamide], the inhibition in vivo at 10 mg/kg in the assay on RAT PAW EDEMA amounted to 37%. The inhibition in vivo at 30 mg/kg in assay [1] (setting [2]) turned out to be 46%. In addition, the pIC50 at HUMAN COX I (setting [3]) is 5.68. For `CS(=O)(=O)c1ccc(C2=C(c3ccc4c(c3)OCO4)CCC2)cc1` [Example 35, 5-[2-[4-(Methylsulfonyl)phenyl]cyclopenten-1-yl]-1,3-benzodioxole], the inhibition in vivo at 30 mg/kg in the assay on RAT PAW EDEMA is 6%. Take `Cc1ccc(C2=C(c3ccc(S(C)(=O)=O)cc3)CCC2)cn1` [Example 36]: in the assay on RAT PAW EDEMA, the inhibition in vivo at 30 mg/kg amounted to 33%. Moreover, the pIC50 on HUMAN COX I (setting [3]) is less than 4.00.

For the compound `O=S(=O)(CF)c1ccc(C2=C(c3ccc(F)cc3)CCC2)cc1` [Example 37, 1-[2-(4-Fluorophenyl)cyclopenten-1-yl]-4-(fluoromethylsulfonyl)benzene], the pIC50 was less than 4.00 on HUMAN COX I (setting [3]) and greater than 7.00 at HUMAN COX II. As to `CS(=O)(=O)Nc1ccc([N+](=O)[O-])cc1OC1CCCCC1` [N-(2-cyclohexyloxy-4-nitrophenyl)methanesulfonamide], in the assay on COX II enzyme, the “inhibition of the COX II enzyme” value is listed as “inhibits the COX II enzyme”.
